According to publication PMC12155096 (International Journal of Molecular Sciences, 2025):
Where two headings read alike, the source gives them in different places.

Key:
[1] = molecular target: Photinus pyralis (firefly) luciferase (Photinus pyralis, UniProt P08659); assay: biochemical; type: biochemical; details: for IC50: read-out: Luciferase IC50 (half-maximal inhibitory concentration)
[2] = molecular target: T1, human CYP1A2 (Homo sapiens, UniProt P05177)
T1 sequence (P05177 1-516): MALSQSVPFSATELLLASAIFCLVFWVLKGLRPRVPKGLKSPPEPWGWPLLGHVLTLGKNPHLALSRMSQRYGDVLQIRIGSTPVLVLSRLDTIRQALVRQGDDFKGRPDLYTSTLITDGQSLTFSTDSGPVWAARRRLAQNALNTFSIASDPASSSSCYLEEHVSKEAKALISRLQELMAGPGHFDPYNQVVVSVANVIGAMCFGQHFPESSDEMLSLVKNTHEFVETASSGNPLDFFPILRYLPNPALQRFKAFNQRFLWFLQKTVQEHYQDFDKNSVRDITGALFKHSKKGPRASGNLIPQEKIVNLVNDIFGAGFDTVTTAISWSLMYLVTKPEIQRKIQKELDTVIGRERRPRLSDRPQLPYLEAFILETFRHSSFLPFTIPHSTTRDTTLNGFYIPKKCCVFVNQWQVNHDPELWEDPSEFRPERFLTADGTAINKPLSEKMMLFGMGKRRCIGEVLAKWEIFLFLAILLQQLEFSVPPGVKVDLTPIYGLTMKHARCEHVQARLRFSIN

[3] = molecular target: human CYP2C9 (Homo sapiens, UniProt P11712)
human CYP2C9, sequence (P11712 whole entry): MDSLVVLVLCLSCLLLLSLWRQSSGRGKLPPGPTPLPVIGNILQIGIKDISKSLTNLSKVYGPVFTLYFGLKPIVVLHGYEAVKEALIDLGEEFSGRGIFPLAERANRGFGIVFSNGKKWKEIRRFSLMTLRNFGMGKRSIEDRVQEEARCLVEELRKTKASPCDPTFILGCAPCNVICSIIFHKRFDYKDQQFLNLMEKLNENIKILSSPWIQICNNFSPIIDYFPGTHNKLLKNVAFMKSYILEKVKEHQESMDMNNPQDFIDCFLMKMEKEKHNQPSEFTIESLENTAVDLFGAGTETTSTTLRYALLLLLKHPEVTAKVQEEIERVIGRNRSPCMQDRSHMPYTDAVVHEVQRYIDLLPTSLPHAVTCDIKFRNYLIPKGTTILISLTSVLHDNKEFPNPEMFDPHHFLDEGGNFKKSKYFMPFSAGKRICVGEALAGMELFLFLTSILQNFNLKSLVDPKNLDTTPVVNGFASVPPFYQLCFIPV

[4] = molecular target: human CYP2C19 (Homo sapiens, UniProt P33261)
human CYP2C19, sequence (P33261 whole entry): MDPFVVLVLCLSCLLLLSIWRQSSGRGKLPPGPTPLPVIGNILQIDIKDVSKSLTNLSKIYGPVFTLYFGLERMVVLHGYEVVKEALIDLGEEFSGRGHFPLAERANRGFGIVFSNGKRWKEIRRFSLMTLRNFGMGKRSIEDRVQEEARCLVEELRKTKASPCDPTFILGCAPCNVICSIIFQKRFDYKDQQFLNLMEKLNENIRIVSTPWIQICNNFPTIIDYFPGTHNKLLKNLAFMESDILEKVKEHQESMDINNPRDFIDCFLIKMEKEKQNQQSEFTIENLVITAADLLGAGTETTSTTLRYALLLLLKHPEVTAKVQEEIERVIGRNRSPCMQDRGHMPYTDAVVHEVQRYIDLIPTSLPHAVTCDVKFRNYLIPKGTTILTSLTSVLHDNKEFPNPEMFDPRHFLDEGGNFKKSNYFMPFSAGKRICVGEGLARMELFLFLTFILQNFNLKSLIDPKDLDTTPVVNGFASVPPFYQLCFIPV

[5] = molecular target: human CYP2D6 (Homo sapiens, UniProt P10635)
human CYP2D6, sequence (P10635 whole entry): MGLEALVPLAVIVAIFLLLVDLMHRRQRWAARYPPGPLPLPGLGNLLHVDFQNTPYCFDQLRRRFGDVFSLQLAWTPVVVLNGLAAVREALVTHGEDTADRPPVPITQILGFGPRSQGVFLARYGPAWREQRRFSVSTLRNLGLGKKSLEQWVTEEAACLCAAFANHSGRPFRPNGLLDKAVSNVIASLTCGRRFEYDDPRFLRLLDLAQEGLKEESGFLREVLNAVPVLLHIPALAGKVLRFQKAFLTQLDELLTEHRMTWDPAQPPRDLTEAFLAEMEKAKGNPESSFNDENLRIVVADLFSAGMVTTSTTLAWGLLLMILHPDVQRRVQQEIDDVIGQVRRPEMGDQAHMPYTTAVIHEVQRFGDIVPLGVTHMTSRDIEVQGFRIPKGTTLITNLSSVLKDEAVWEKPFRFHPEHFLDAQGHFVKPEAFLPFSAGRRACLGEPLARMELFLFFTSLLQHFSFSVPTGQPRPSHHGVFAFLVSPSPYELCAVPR

[6] = molecular target: CYP3A4 (Homo sapiens, UniProt P08684)
CYP3A4, sequence (P08684 whole entry): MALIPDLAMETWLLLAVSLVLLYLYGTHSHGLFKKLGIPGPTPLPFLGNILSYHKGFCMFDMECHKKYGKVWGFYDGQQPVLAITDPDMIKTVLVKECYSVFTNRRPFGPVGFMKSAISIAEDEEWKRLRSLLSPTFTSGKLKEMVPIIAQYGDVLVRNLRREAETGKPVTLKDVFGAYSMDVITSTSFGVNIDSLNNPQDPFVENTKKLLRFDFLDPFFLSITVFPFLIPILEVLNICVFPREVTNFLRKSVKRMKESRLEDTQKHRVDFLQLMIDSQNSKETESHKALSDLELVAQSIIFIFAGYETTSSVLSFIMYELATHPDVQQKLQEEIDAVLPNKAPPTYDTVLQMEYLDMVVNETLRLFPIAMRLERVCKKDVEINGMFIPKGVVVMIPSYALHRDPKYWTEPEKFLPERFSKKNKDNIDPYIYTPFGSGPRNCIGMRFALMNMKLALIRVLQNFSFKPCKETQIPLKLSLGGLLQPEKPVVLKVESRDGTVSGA

Photinus pyralis (firefly) luciferase, sequence (P08659 whole entry): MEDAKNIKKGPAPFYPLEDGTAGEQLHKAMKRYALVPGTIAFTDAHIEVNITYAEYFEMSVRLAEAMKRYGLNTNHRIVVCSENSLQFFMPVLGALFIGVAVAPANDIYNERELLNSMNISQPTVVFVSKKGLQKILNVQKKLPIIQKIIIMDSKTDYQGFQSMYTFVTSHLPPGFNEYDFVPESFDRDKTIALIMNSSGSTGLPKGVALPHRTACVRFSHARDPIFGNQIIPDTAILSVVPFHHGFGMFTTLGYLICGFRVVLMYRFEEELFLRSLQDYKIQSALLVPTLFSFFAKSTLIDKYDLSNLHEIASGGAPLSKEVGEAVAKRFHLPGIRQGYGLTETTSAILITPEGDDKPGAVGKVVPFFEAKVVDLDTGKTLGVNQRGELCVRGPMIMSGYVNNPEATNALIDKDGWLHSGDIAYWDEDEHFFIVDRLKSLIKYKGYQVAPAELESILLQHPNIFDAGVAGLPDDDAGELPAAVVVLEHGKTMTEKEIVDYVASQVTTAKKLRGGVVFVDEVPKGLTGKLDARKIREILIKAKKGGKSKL

SMILES	IC50 [5]	Luciferase IC50 (half-maximal inhibitory concentration) [1]	IC50 [2]	CYP3A4 IC50 (half-maximal inhibitory concentration) [6]	IC50 [3]	CYP2C19 Efficacy (in parenthesis) [4]	IC50 [4]	CYP3A4 Efficacy (in parenthesis) [6]	IC50 [6]	other results
O=C1NCN(c2ccccc2)C12CCN(CCCOc1ccc(F)cc1)CC2 [AMI-193]	0.6 µM									Luciferase IC50 [1]: Inactive; CYP1A2 IC50 [2]: Inactive; CYP2C9 IC50 [3]: Inactive; CYP2C19 AC50 (half-maximal activity concentration) [4]: Inconclusive inhibitor; CYP2C19 IC50 [4]: Inactive; AC50 [5]: 0.6 µM; AC50 [6]: 4.72 µM; CYP3A4 IC50 [6]: 4.72 ± 0.31 (133 ± 10) µM
COC(=O)c1cc(Cl)ccc1NS(=O)(=O)C(F)(F)F [Amidoflumet]		Inactive	0.91 µM	Inactive						CYP2C9 IC50 (half-maximal inhibitory concentration) [3]: Inactive; CYP2C19 IC50 (half-maximal inhibitory concentration) [4]: Inactive; CYP2D6 IC50 (half-maximal inhibitory concentration) [5]: Inactive
COP(=S)(NC(C)C)Oc1ccc(C)cc1[N+](=O)[O-] (stereo not drawn) [Amiprofos-methyl]	41.7 µM	Inactive	12.3 µM		2.74 µM	0.41 ± 0.19 (-132 ± 27) %	0.41 µM	0.55 ± 0.08 (-87 ± 1) %	0.55 µM	CYP1A2 Efficacy (in parenthesis) [2]: 12.35 ± 5.02 (-104 ± 9) %; CYP2C9 Efficacy (in parenthesis) [3]: 2.74 ± 0.38 (-109 ± 3) %; CYP2D6 Efficacy (in parenthesis) [5]: 41.71 ± 5.32 (-58 ± 14) %
COP(=S)(OC)SCn1nnc2ccccc2c1=O [Azinphos-methyl]								11.45 ± 2.62 (-87 ± 5) %		Luciferase Efficacy (in parenthesis) [1]: 47.70 ± 13.48 (-40 ± 2) %; CYP1A2 Efficacy (in parenthesis) ([2]; human): 28.26 ± 0 (-93 ± 8) %; CYP2C9 Efficacy (in parenthesis) ([3]; human): 3.88 ± 0.66 (-99 ± 12) %; CYP2C19 Efficacy (in parenthesis) ([4]; human): 1.01 ± 0.12 (-134 ± 9) %; CYP2D6 Efficacy (in parenthesis) ([5]; human): 55.48 ± 13.48 (-75 ± 13) %
COc1ccc(OC)c(N=Nc2c(O)ccc3ccccc23)c1 [C.I. Solvent Red 80]	13.6 µM		0.75 µM		6.33 µM		8 µM		2.79 µM	IC50 [1]: 6.97 µM
Cl.Clc1ccc(Cn2c(CN3CCCC3)nc3ccccc32)cc1 [Clemizole hydrochloride]	1.56 µM	Inactive	17.6 µM		16.1 µM	0.68 ± 0.17 (-140 ± 7) %	0.68 µM	6.24 ± 1.17 (-72 ± 1) %	6.24 µM	CYP1A2 Efficacy (in parenthesis) [2]: 17.64 ± 0.46 (-72 ± 13) %; CYP2C9 Efficacy (in parenthesis) [3]: 16.12 ± 1.09 (-82 ± 4) %; CYP2D6 Efficacy (in parenthesis) [5]: 1.56 ± 0.18 (-101 ± 1) %
Cl.Clc1ccc(C(OCCN2CCCCC2)c2ccccc2)cc1 (stereo not drawn) [Cloperastine hydrochloride]	0.17 µM		22.5 µM				18.5 µM		4.43 µM	Luciferase IC50 [1]: Inactive; CYP2C9 IC50 [3]: Inactive
CC(=O)O.CC(C)c1ccc2c(c1)CC[C@H]1[C@](C)(CN)CCC[C@]21C [Dehydroabietylamine acetate]	1.51 µM	Inactive	38.6 µM		42.2 µM	14.98 ± 6.91 (-121 ± 11) %	15 µM	0.41 ± 0.13 (-82 ± 3) %	0.41 µM	CYP1A2 Efficacy (in parenthesis) [2]: 38.64 ± 5.32 (-53 ± 5) %; CYP2C9 Efficacy (in parenthesis) [3]: 42.19 ± 26.12 (-70 ± 20) %; CYP2D6 Efficacy (in parenthesis) [5]: 1.51 ± 0.43 (-90 ± 10) %
C[C@@H]1C[C@H]2[C@@H]3CCC4=CC(=O)C=C[C@]4(C)[C@@]3(F)[C@@H](O)C[C@]2(C)[C@@]1(O)C(=O)COC(=O)c1ccncc1 [Dexamethasone isonicotinate]	9.5 µM	Inactive			7.32 µM		23.4 µM		0.81 µM	CYP1A2 IC50 (half-maximal inhibitory concentration) [2]: Inactive
COS(=O)(=O)[O-].Cn1c(-c2ccccc2)cc(-c2ccccc2)[n+]1C [Difenzoquat metilsulfate]	0.44 µM									Luciferase IC50 [1]: Inactive; CYP1A2 IC50 [2]: Inactive; CYP2C9 IC50 [3]: Inactive; CYP2C19 IC50 [4]: Inactive; CYP3A4 IC50 [6]: Inactive
C=CC(=O)OCC(CO)(COCC(COC(=O)C=C)(COC(=O)C=C)COC(=O)C=C)COC(=O)C=C [Dipentaerythritol pentaacrylate]	26.7 µM	Inactive			7.3 µM	8.87 ± 1.02 (-135 ± 9) %	8.87 µM	0.43 ± 0.03 (-94 ± 4) %	0.43 µM	CYP1A2 IC50 (half-maximal inhibitory concentration) [2]: Inactive; CYP2C9 Efficacy (in parenthesis) [3]: 7.3 ± 0.49 (-101 ± 2) %; CYP2D6 Efficacy (in parenthesis) [5]: 26.69 ± 11.98 (-72 ± 6) %
CCc1ccc(C(=O)C(C)CN2CCCCC2)cc1.Cl (stereo not drawn) [Eperisone hydrochloride]	0.51 µM	Inactive	29.2 µM	Inactive			4.72 µM			CYP2C9 IC50 (half-maximal inhibitory concentration) [3]: Inactive
CCOC(CN1CCN(CC(C)C(=O)c2ccccc2)CC1)c1ccccc1.Cl.Cl (stereo not drawn) [Eprazinone dihydrochloride]	0.2 µM	Inactive		15.16 ± 1.74 (64 ± 2) µM	11.5 µM					CYP1A2 IC50 (half-maximal inhibitory concentration) [2]: Inactive; AC50 [3]: 11.5 µM; CYP2C19 IC50 (half-maximal inhibitory concentration) [4]: Inactive; AC50 [5]: 0.2 µM; AC50 [6]: 15.2 µM
CCc1cc(Cl)c(OC)c(C(=O)NC[C@@H]2CCCN2CC)c1O.Cl [Eticlopride hydrochloride]		Inactive	13.5 µM	Inactive						CYP2C9 IC50 (half-maximal inhibitory concentration) [3]: Inactive; CYP2C19 IC50 (half-maximal inhibitory concentration) [4]: Inactive; CYP2D6 Efficacy [5]: 0.67 ± 0.09 (-96 ± 1) %
Cc1[nH]cnc1C[C@H]1CCc2c(C)c3ccccc3n2C1=O.Cl [Fabesetron hydrochloride]		Inactive	1.56 µM				1.67 µM		1.89 µM	CYP2C9 Efficacy [3]: 0.51 ± 0.09 (-90 ± 4) %; CYP2D6 Efficacy [5]: 3.52 ± 0.74 (-103 ± 4) %
O=S(=O)(Oc1ccc(Cl)cc1)c1ccccc1 [Fenson]	35.7 µM		5.64 µM	6.61 ± 0.84 (131 ± 4) µM	34.3 µM	0.78 ± 0.29 (-135 ± 6) %	0.78 µM	6.61 ± 0.84 (131 ± 4) %		Luciferase Efficacy (in parenthesis) [1]: 76.75 ± 5.00 (-30 ± 10) %; IC50 [1]: 76.8 µM; CYP1A2 Efficacy [2]: 5.64 ± 0.00 (-100 ± 5) %; CYP1A2 Efficacy (in parenthesis) [2]: 5.64 ± 0 (-100 ± 5) %; AC50 [3]: 34.3 µM; CYP2C9 Efficacy [3]: 34.28 ± 2.23 (-89 ± 7) %; CYP2C19 Efficacy [4]: 0.78 ± 0.29 (-135 ± 6) %; AC50 [5]: 35.7 µM; CYP2D6 Efficacy [5]: 35.73 ± 4.11 (-62 ± 14) %; AC50 [6]: 6.61 µM
